Reference: patent US10899733B2, “Inhibitors of PARPs that catalyze mono-ADP-ribosylation” (OREGON HEALTH & SCIENCE UNIVERSITY, priority 2017, dated 2021)

Key:
Type in all cases: biochemical
PARP6S = PARP6S (Homo sapiens, UniProt Q2NL67); assay: PARP panel: ADP-ribosylation of SRPK2 using 6-a-NAD+
PARP12 = target: T1, PARP12 (Homo sapiens, UniProt Q9H0J9); assay: as above
T1 sequence (Q9H0J9 1-701): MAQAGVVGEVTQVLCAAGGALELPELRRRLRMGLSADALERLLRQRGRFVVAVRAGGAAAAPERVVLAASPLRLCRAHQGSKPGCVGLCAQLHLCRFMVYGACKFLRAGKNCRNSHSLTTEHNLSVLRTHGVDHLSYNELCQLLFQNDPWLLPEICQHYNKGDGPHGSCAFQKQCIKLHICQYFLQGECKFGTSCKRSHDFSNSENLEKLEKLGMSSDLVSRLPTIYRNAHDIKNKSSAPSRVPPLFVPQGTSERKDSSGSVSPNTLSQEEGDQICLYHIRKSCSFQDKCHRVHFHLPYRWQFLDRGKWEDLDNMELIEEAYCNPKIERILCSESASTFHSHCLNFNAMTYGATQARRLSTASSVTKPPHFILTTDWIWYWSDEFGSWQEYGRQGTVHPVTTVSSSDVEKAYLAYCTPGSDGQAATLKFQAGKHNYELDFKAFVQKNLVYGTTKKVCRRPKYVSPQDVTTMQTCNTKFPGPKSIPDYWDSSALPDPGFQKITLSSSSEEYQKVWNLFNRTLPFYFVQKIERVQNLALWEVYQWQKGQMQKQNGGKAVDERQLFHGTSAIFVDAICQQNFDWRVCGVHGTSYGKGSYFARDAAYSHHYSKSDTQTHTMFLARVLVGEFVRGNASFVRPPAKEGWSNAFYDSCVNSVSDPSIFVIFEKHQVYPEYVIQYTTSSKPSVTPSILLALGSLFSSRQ

PARP11 = target: T2, PARP11 (Homo sapiens, UniProt Q9NR21); assay: Inhibition of PARP11-mediated ADP-ribosylation of SRPK2 using NAD+ (100 μM); conditions: ADP-ribosylation of SRPK2, NAD+ 100 μM
T2 sequence (Q9NR21 1-338): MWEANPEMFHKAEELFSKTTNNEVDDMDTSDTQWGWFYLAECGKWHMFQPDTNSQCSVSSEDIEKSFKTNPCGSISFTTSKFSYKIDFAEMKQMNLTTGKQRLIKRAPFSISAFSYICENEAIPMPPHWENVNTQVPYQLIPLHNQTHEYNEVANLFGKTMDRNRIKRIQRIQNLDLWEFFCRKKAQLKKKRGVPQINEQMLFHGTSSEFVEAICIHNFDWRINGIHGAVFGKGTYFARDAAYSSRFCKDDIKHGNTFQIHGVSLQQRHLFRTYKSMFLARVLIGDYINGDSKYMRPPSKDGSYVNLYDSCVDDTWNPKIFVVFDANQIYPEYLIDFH

PARP10cat = target: T3, PARP10cat (Homo sapiens, UniProt Q53GL7); assay: Inhibition of PARP10cat-mediated ADP-ribosylation of SRPK2 using NAD+ (100 μM)
T3 sequence (Q53GL7 806-1025 limits assumed): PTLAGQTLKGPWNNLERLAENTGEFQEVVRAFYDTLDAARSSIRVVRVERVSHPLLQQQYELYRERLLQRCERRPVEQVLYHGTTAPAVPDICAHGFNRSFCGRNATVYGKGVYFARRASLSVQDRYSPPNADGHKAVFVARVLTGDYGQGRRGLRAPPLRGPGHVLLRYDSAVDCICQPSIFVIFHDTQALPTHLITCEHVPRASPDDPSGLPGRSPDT

PARP6S, sequence (Q2NL67 1-518 isoform Q2NL67-2): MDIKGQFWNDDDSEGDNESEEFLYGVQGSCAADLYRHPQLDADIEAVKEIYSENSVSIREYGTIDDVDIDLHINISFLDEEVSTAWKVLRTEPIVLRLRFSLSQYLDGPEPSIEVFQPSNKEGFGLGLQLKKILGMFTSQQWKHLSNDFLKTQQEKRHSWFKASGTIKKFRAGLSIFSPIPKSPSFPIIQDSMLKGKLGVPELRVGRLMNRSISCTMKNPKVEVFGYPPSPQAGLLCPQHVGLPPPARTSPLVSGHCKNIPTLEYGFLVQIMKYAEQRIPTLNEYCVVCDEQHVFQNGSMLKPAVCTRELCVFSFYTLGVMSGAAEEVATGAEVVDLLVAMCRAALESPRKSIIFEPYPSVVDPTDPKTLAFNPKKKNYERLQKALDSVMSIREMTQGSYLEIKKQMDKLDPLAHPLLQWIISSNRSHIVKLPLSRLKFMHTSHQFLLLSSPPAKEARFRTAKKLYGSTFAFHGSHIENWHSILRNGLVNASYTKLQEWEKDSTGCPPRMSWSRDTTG

`Cc1c(-c2ccnc(C(F)(F)F)c2)ccc2c1CCNC2=O` [Compound 22, 5-methyl-6-(2-(trifluoromethyl)pyridin-4-yl)-3,4-dihydroisoquinolin-1(2H)-one] was tested, and the IC50 (PARP6S; 6-a-NAD+) was > 30 µM, the PARP/PARP10 (PARP6S; PARP6S over PARP10cat) was >10 and the IC50 (PARP12; 6-a-NAD+) was > 30 µM. The PARP/PARP10 (PARP12; PARP12 over PARP10cat) was >10, the IC50 (PARP11) was 51.7 µM and the “PARP11 pIC50 ± S.E.M.” value (PARP11) was 4.29 ± 0.04. For the same compound, the “selectivity for PARP10 over PARP11” value (PARP10cat) was 29 fold, the “improvement in selectivity for PARP10 over PARP11 compared to parent compound” value (PARP10cat; 12 vs 8, 14 vs 3, 20, 22 vs 16, 23, 24 vs 15) was ~2 fold and the “PARP10cat pIC50 ± S.E.M.” value (PARP10cat; ADP-ribosylation of SRPK2, NAD+ 100 μM) was 5.74 ± 0.02. For the same compound, the PARP11/PARP10 (PARP10cat; ratio of IC50 values, PARP11 over PARP10cat) was 29.
